Reference: the supplement of paper PMC11451515

Experiments:
SEM cells [1] = assay: cell viability relative to DMSO control; higher = less cytotoxic; conditions: 48 h
Method in brief: (§1)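 Viability, reported as a per-plate percentage of DMSO wells with cell-free wells as background, came from CellTiter-Glo One luminescence. Reading took place after 48 h at 37°C. Before that, NOMO1 or SEM (500 cells/well) or P12-Ichikawa (1000 cells/well) leukemia cells, adapted for at least four passages in each medium, were seeded in 1536-well plates (5 μl) and pin-dosed with library compounds in DMSO, 47 μM to 0.79 nM over 11 threefold points.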

P12-Ichikawa = assay: AUC of viability dose-response curve (% viability x log10 dose units); higher = less sensitive; conditions: 48 h
Method in brief: (§2)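 Leukemia cells adapted to each medium were seeded at 500 or 1000 cells/well in 1536-well plates and dosed with library compounds in DMSO at 11 threefold doses from 47 μM to 0.79 nM for 48 h at 37°C. CellTiter-Glo One luminescence was normalised per plate to DMSO and cell-free wells, then fitted with a four-parameter log-logistic model over log10 doses. Area under the curve was taken from this fit by the trapezoidal rule, with curves above full viability scaled and curves failing quality control removed.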

NOMO1 [2] = assay: as above; conditions: 48 h
Method in brief: as §2

SEM cells [3] = assay: as above; conditions: 48 h
Method in brief: as §2

NOMO1 [4] = assay: cell viability relative to DMSO control; higher = less cytotoxic; conditions: RPMI 5 mM glucose + 10% FBS, 48 h
Method in brief: as §1

[5] = RPMI 5 mM glucose + 10% dialyzed FBS

SMILES | AUC of viability dose-response curve (P12-Ichikawa; HPLM + 10% dialyzed FBS) | AUC of viability dose-response curve (P12-Ichikawa; RPMI 5 mM glucose + 10% FBS) | AUC of viability dose-response curve (P12-Ichikawa; [5]) | AUC of viability dose-response curve (NOMO1 [2]; HPLM + 10% dialyzed FBS) | AUC of viability dose-response curve (NOMO1 [2]; RPMI 5 mM glucose + 10% FBS) | AUC of viability dose-response curve (NOMO1 [2]; [5]) | AUC of viability dose-response curve (SEM cells [3]; HPLM + 10% dialyzed FBS) | AUC of viability dose-response curve (SEM cells [3]; RPMI 5 mM glucose + 10% FBS) | AUC of viability dose-response curve (SEM cells [3]; [5]) | further results
CCCC1=NC(=C2[N]1NC(=N\C2=O)/C3=CC(=CC=C3OCC)[S+]([O-])(=O)N4CCN(CC)CC4)C | 421 | 402 | 399 | 402 | 409 | 406 | 417 | 407 | 401 | cell viability (SEM cells [1]; RPMI 5 mM glucose + 10% dialyzed FBS, 0.000781 µM): 125%; cell viability (SEM cells [1]; RPMI 5 mM glucose + 10% dialyzed FBS, 0.00234 µM): 115%; cell viability (SEM cells [1]; RPMI 5 mM glucose + 10% dialyzed FBS, 0.00702 µM): 128%; cell viability (SEM cells [1]; RPMI 5 mM glucose + 10% dialyzed FBS, 0.0211 µM): 131%; cell viability (SEM cells [1]; RPMI 5 mM glucose + 10% dialyzed FBS, 0.0632 µM): 143%; cell viability (SEM cells [1]; RPMI 5 mM glucose + 10% dialyzed FBS, 0.19 µM): 134%; cell viability (SEM cells [1]; RPMI 5 mM glucose + 10% dialyzed FBS, 0.569 µM): 140%; cell viability (SEM cells [1]; RPMI 5 mM glucose + 10% dialyzed FBS, 1.71 µM): 145%; cell viability (SEM cells [1]; RPMI 5 mM glucose + 10% dialyzed FBS, 5.12 µM): 106%; cell viability (SEM cells [1]; RPMI 5 mM glucose + 10% dialyzed FBS, 15.4 µM): 10.4%; cell viability (SEM cells [1]; RPMI 5 mM glucose + 10% dialyzed FBS, 46.1 µM): 6.51%
COC(=O)Nc1ccc(-c2nc(N3CCOCC3)c3cnn(C4CCN(C(=O)OC)CC4)c3n2)cc1 | 343 | 339 | 331 | 337 | 392 | 336 | 337 | 375 | 382 | –
Cc1cc(CN2CCN(c3c(Br)cnc4[nH]c(-c5ccc(N6CCN(C)CC6)cc5)nc34)CC2)no1 | 329 | 333 | 348 | 377 | 415 | 410 | 317 | 310 | 307 | cell viability (NOMO1 [4]; 0.000781 µM): 120%; cell viability (NOMO1 [4]; 0.00234 µM): 131%; cell viability (NOMO1 [4]; 0.00702 µM): 120%; cell viability (NOMO1 [4]; 0.0211 µM): 129%; cell viability (NOMO1 [4]; 0.0632 µM): 138%; cell viability (NOMO1 [4]; 0.19 µM): 117%; cell viability (NOMO1 [4]; 0.569 µM): 113%; cell viability (NOMO1 [4]; 1.71 µM): 70.2%; cell viability (NOMO1 [4]; 5.12 µM): 102%; cell viability (NOMO1 [4]; 15.4 µM): 78.1%; cell viability (NOMO1 [4]; 46.1 µM): 80.6%
COC1CCC(C(=O)c2ccc3nc4c(cc3c2)CCCO4)CC1 (stereo unspecified) | 458 | 453 | 460 | 421 | 430 | 437 | 458 | 422 | 438 | –
Cn1cc(CNCC2CCN(c3ncc(C(=O)NO)cn3)CC2)c2ccccc21 | 262 | 255 | 273 | 268 | 276 | 271 | 231 | 238 | 239 | –
Fc1ccc(Cl)cc1-c1nc(Nc2ccncc2)c2nccnc2n1 | 463 | 457 | 451 | 461 | 438 | 442 | 453 | 464 | 467 | –
Cn1cc(/C=C/C(=O)c2cccc(F)c2)cc1/C=C/C(=O)NO | 466 | 475 | 462 | 468 | 470 | 468 | 474 | 476 | 469 | cell viability (SEM cells [1]; HPLM + 10% dialyzed FBS, 0.000781 µM): 123%; cell viability (SEM cells [1]; HPLM + 10% dialyzed FBS, 0.00234 µM): 133%; cell viability (SEM cells [1]; HPLM + 10% dialyzed FBS, 0.00702 µM): 120%; cell viability (SEM cells [1]; HPLM + 10% dialyzed FBS, 0.0211 µM): 129%; cell viability (SEM cells [1]; HPLM + 10% dialyzed FBS, 0.0632 µM): 136%; cell viability (SEM cells [1]; HPLM + 10% dialyzed FBS, 0.19 µM): 120%; cell viability (SEM cells [1]; HPLM + 10% dialyzed FBS, 0.569 µM): 137%; cell viability (SEM cells [1]; HPLM + 10% dialyzed FBS, 1.71 µM): 128%; cell viability (SEM cells [1]; HPLM + 10% dialyzed FBS, 5.12 µM): 137%; cell viability (SEM cells [1]; HPLM + 10% dialyzed FBS, 15.4 µM): 132%; cell viability (SEM cells [1]; HPLM + 10% dialyzed FBS, 46.1 µM): 118%
